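Values below derive from 48-hour exposures of cells grown in 96-well plates, with endpoints linearly interpolated between the two concentrations bracketing the appropriate inhibition level. The concentration for 50% growth inhibition is given as GI50. Definition used: TGI = concentration required for complete inhibition of growth.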
What was measured:
Assay in all cases: growth of human tumour cells (NCI), 48 h
[1] = tested on: 786-0 renal
[2] = tested on: A498 renal
[3] = tested on: A549 NSCLC
[4] = tested on: ACHN renal
[5] = tested on: BT-549 breast
[6] = tested on: CAKI-1 renal
[7] = tested on: CCRF-CEM leukemia
[8] = tested on: COLO 205 colon
[9] = tested on: DU-145 prostate
[10] = tested on: EKVX NSCLC
[11] = tested on: HCC-2998 colon
[12] = tested on: HCT-116 colon
[13] = tested on: HCT-15 colon
[14] = tested on: HL-60(TB) leukemia
[15] = tested on: HOP-62 NSCLC
[16] = tested on: HOP-92 NSCLC
[17] = tested on: HS 578T breast
[18] = tested on: HT29 colon
[19] = tested on: IGROV1 ovarian
[20] = tested on: K-562 leukemia
[21] = tested on: KM12 colon
[22] = tested on: LOX IMVI melanoma
[23] = tested on: M14 melanoma
[24] = tested on: MALME-3M melanoma
[25] = tested on: MCF7 breast
[26] = tested on: MDA-MB-231 breast
[27] = tested on: MDA-MB-435
[28] = tested on: MOLT-4 leukemia
[29] = tested on: NCI-H226 lung
[30] = tested on: NCI-H23 lung
[31] = tested on: NCI-H460 lung
[32] = tested on: NCI-H522 lung
[33] = tested on: NCI/ADR-RES ovarian
[34] = tested on: OVCAR-3 ovarian
[35] = tested on: OVCAR-4 ovarian
[36] = tested on: OVCAR-5 ovarian
[37] = tested on: OVCAR-8 ovarian
[38] = tested on: PC-3 prostate
[39] = tested on: RPMI-8226 leukemia
[40] = tested on: RXF 393 renal
[41] = tested on: SF-268 CNS
[42] = tested on: SF-295 CNS
[43] = tested on: SF-539 CNS
[44] = tested on: SK-MEL-2 melanoma
[45] = tested on: SK-MEL-28 melanoma
[46] = tested on: SK-MEL-5 melanoma
[47] = tested on: SK-OV-3 ovarian
[48] = tested on: SN12C renal
[49] = tested on: SNB-19 CNS
[50] = tested on: SNB-75 CNS
[51] = tested on: SR leukemia
[52] = tested on: SW-620 colon
[53] = tested on: T-47D breast
[54] = tested on: TK-10 renal
[55] = tested on: U251 CNS
[56] = tested on: UACC-257 melanoma
[57] = tested on: UACC-62 melanoma
[58] = tested on: UO-31 renal

**Q.** `Cn1cc(-c2nc(-c3c[nH]c4ncccc34)cs2)c2cc(F)ccc21` was tested. Which GI50 [1] did it give?
**A.** 2.82 µM

**Q.** And the TGI [1]?
**A.** 7.64 µM

**Q.** And the GI50 [2]?
**A.** 2.03 µM

**Q.** What about the TGI [2] of the same compound?
**A.** 7.48 µM

**Q.** What about the GI50 [3] of the same compound?
**A.** 2.81 µM

**Q.** And the TGI [3]?
**A.** > 25.6 µM

**Q.** What about the GI50 [4] of the same compound?
**A.** 3.21 µM

**Q.** And the TGI [4]?
**A.** 14.7 µM

**Q.** And the GI50 [5]?
**A.** 3.7 µM

**Q.** And the TGI [5]?
**A.** 13.6 µM

**Q.** And the GI50 [6]?
**A.** 2.2 µM

**Q.** What about the TGI [6] of the same compound?
**A.** 8.44 µM

**Q.** And the GI50 [7]?
**A.** 3.04 µM

**Q.** What about the TGI [7] of the same compound?
**A.** > 52.6 µM

**Q.** What about the GI50 [8] of the same compound?
**A.** 2.69 µM

**Q.** And the TGI [8]?
**A.** 8.52 µM

**Q.** And the GI50 [9]?
**A.** 3.97 µM

**Q.** What about the TGI [9] of the same compound?
**A.** 15.2 µM

**Q.** And the GI50 [10]?
**A.** 0.6 µM

**Q.** And the TGI [10]?
**A.** 10.5 µM

**Q.** And the GI50 [11]?
**A.** 1.98 µM

**Q.** And the TGI [11]?
**A.** 7.59 µM

**Q.** And the GI50 [12]?
**A.** 2.56 µM

**Q.** And the TGI [12]?
**A.** 7.22 µM

**Q.** And the GI50 [13]?
**A.** 2.88 µM

**Q.** What about the TGI [13] of the same compound?
**A.** > 45 µM

**Q.** What about the GI50 [14] of the same compound?
**A.** 3.21 µM

**Q.** What about the TGI [14] of the same compound?
**A.** 15.6 µM

**Q.** And the GI50 [15]?
**A.** 4.11 µM

**Q.** What about the TGI [15] of the same compound?
**A.** 16.5 µM

**Q.** What about the GI50 [16] of the same compound?
**A.** 1.92 µM

**Q.** And the TGI [16]?
**A.** 5.79 µM

**Q.** What about the GI50 [17] of the same compound?
**A.** 4.23 µM

**Q.** And the TGI [17]?
**A.** > 100 µM

**Q.** What about the GI50 [18] of the same compound?
**A.** 2.1 µM

**Q.** And the TGI [18]?
**A.** 4.53 µM

**Q.** What about the GI50 [19] of the same compound?
**A.** 2.51 µM

**Q.** What about the TGI [19] of the same compound?
**A.** 13.1 µM

**Q.** And the GI50 [20]?
**A.** 2.19 µM

**Q.** What about the TGI [20] of the same compound?
**A.** > 22.9 µM

**Q.** And the GI50 [21]?
**A.** 0.83 µM

**Q.** What about the TGI [21] of the same compound?
**A.** 5.16 µM

**Q.** What about the GI50 [22] of the same compound?
**A.** 2.48 µM

**Q.** And the TGI [22]?
**A.** 7.06 µM

**Q.** And the GI50 [23]?
**A.** 2.93 µM

**Q.** And the TGI [23]?
**A.** 9.74 µM

**Q.** And the GI50 [24]?
**A.** 2.73 µM

**Q.** What about the TGI [24] of the same compound?
**A.** 13.4 µM

**Q.** And the GI50 [25]?
**A.** 1.13 µM

**Q.** And the TGI [25]?
**A.** 6.53 µM

**Q.** What about the GI50 [26] of the same compound?
**A.** 2.32 µM

**Q.** And the TGI [26]?
**A.** 8.36 µM

**Q.** And the GI50 [27]?
**A.** 1.12 µM

**Q.** What about the TGI [27] of the same compound?
**A.** 4.88 µM

**Q.** What about the GI50 [28] of the same compound?
**A.** 3.16 µM

**Q.** What about the TGI [28] of the same compound?
**A.** 17 µM

**Q.** And the GI50 [29]?
**A.** 4.63 µM

**Q.** And the TGI [29]?
**A.** 25.9 µM

**Q.** And the GI50 [30]?
**A.** 2.4 µM

**Q.** What about the TGI [30] of the same compound?
**A.** 10.1 µM

**Q.** What about the GI50 [31] of the same compound?
**A.** 1.89 µM

**Q.** And the TGI [31]?
**A.** 6.72 µM

**Q.** What about the GI50 [32] of the same compound?
**A.** 2.7 µM

**Q.** What about the TGI [32] of the same compound?
**A.** 9.89 µM

**Q.** What about the GI50 [33] of the same compound?
**A.** 2.47 µM

**Q.** What about the TGI [33] of the same compound?
**A.** 7.66 µM

**Q.** What about the GI50 [34] of the same compound?
**A.** 3.02 µM

**Q.** And the TGI [34]?
**A.** 8.25 µM

**Q.** What about the GI50 [35] of the same compound?
**A.** 0.0689 µM

**Q.** And the TGI [35]?
**A.** 22.2 µM

**Q.** And the GI50 [36]?
**A.** 1.25 µM

**Q.** And the TGI [36]?
**A.** 6.63 µM

**Q.** And the GI50 [37]?
**A.** 2.96 µM

**Q.** What about the TGI [37] of the same compound?
**A.** > 25.3 µM

**Q.** What about the GI50 [38] of the same compound?
**A.** 2.75 µM

**Q.** What about the TGI [38] of the same compound?
**A.** 13.1 µM

**Q.** And the GI50 [39]?
**A.** 2.81 µM

**Q.** What about the TGI [39] of the same compound?
**A.** 48.3 µM

**Q.** And the GI50 [40]?
**A.** 2.49 µM

**Q.** What about the TGI [40] of the same compound?
**A.** 9.14 µM

**Q.** And the GI50 [41]?
**A.** 3.32 µM

**Q.** And the TGI [41]?
**A.** 22.5 µM

**Q.** What about the GI50 [42] of the same compound?
**A.** 2.18 µM

**Q.** What about the TGI [42] of the same compound?
**A.** 6.93 µM

**Q.** And the GI50 [43]?
**A.** 3.8 µM

**Q.** What about the TGI [43] of the same compound?
**A.** 15.3 µM

**Q.** What about the GI50 [44] of the same compound?
**A.** 3.81 µM

**Q.** And the TGI [44]?
**A.** 11.1 µM

**Q.** And the GI50 [45]?
**A.** 4.75 µM

**Q.** What about the TGI [45] of the same compound?
**A.** 16.9 µM

**Q.** And the GI50 [46]?
**A.** 2.6 µM

**Q.** And the TGI [46]?
**A.** 11.5 µM

**Q.** What about the GI50 [47] of the same compound?
**A.** 3.9 µM

**Q.** What about the TGI [47] of the same compound?
**A.** 32.3 µM

**Q.** What about the GI50 [48] of the same compound?
**A.** 3.47 µM

**Q.** And the TGI [48]?
**A.** 15.3 µM

**Q.** What about the GI50 [49] of the same compound?
**A.** 3.82 µM

**Q.** And the TGI [49]?
**A.** 20 µM

**Q.** What about the GI50 [50] of the same compound?
**A.** 2.78 µM

**Q.** What about the TGI [50] of the same compound?
**A.** 10.1 µM

**Q.** And the GI50 [51]?
**A.** 2.44 µM

**Q.** What about the TGI [51] of the same compound?
**A.** 7.8 µM

**Q.** And the GI50 [52]?
**A.** 2.67 µM

**Q.** And the TGI [52]?
**A.** 9.73 µM

**Q.** And the GI50 [53]?
**A.** 0.0443 µM

**Q.** And the TGI [53]?
**A.** 4.43 µM

**Q.** What about the GI50 [54] of the same compound?
**A.** 2.78 µM

**Q.** And the TGI [54]?
**A.** 15.3 µM

**Q.** What about the GI50 [55] of the same compound?
**A.** 2.43 µM

**Q.** What about the TGI [55] of the same compound?
**A.** 8.08 µM

**Q.** And the GI50 [56]?
**A.** 2.72 µM

**Q.** And the TGI [56]?
**A.** 12.3 µM

**Q.** And the GI50 [57]?
**A.** 3.65 µM

**Q.** What about the TGI [57] of the same compound?
**A.** 17.2 µM

**Q.** What about the GI50 [58] of the same compound?
**A.** 2.06 µM

**Q.** What about the TGI [58] of the same compound?
**A.** 8.12 µM
